Reference: patent US6537995B2, “Heterocyclic carboxamides” (Pfizer Inc., priority 1998, dated 2003)

| Structure (SMILES) | melting point |
| --- | --- |
| CN1CCN(c2ccccc2-c2ccc(C(=O)NCc3ccccc3)s2)CC1.Cl.O.O (hydrate or solvate) | 145 °C (dec.) |
| CN1CCN(c2ccccc2-c2ccc(C(=O)NCc3ccc(Cl)cc3)o2)CC1.Cl.O (hydrate or solvate) | 110 °C (dec.) |
| CN1CCN(c2ccc(F)cc2-c2ccc(C(=O)NCc3ccc(Cl)cc3)s2)CC1.O (hydrate or solvate) | 175 to 176.5 °C |
| COc1ccc(CNC(=O)c2ccc(-c3ccccc3N3CCN(C)CC3)s2)cc1.Cl | 140 °C (dec.) |
| CN1CCN(c2ccccc2-c2ccc(C(=O)NCc3ccc(F)cc3)s2)CC1.Cl.O (hydrate or solvate) | 187 to 188 °C |

Continued, values first:

| melting point | Structure (SMILES) |
| --- | --- |
| 145 °C (dec.) | CN1CCN(c2ccccc2-c2ccc(C(=O)Nc3ccc(Cl)cc3)o2)CC1.Cl.O (hydrate or solvate) |
| 80 °C (dec.) | CN1CCN(c2ccccc2-c2ccc(C(=O)NCc3ccc(Cl)cc3)[nH]2)CC1.Cl |
| 256 to 257 °C | CN1CCN(c2ccccc2-c2ccc(C(=O)NCc3ccc(Cl)cc3)s2)CC1.Cl.O (hydrate or solvate) |
| 149 °C (dec.) | CN1CCN(c2ccccc2-c2ccc(C(=O)Nc3ccc(Cl)cc3)s2)CC1.Cl |
